Measurements: patent US20240285497A1, “METHOD FOR EVALUATING AN ABILITY OF A TEST SAMPLE TO TRIGGER A FOREIGN BODY REACTION IN THE SKIN, A METHOD FOR SCREENING A SUBSTANCE HAVING AN ABILITY TO INHIBIT A FOREIGN BODY REACTION IN THE SKIN, AND AN AGENT FOR INHIBITING A FOREIGN BODY REACTION IN THE SKIN” (priority 2021, published 2024)
Marks after values point to notes of the source that are not given here.

Legend:
[1] = tested on: xenobiotic responsive element (XRE); assay: Evaluation of ability to trigger a foreign body reaction using XRE-NLuc::HaCaT reporter cells (NLuc luminescence per viable cell); type: cell-based, human; conditions: XRE-NLuc::HaCaT cells; for EC50: reporter protein expression; for Present Experiment Maximum Effective concentration Max. Induction: concentration at which reporter expression was maximized
Experimental: First, XRE-NLuc::HaCaT cells were suspended in a DMEM medium at the density of 1×10^5 cell/mL, and 100 μL of the thus obtained suspension was added to each well of white 96 well plates (Thermo Fisher Scientific, MA, U.S.A.; Catalogue No.: 136102) so that the number of the cells in each well was 10,000 cells/well. In accordance with a conventional method, the cells were incubated at 37° C., 5% CO2 for 24 hours. Thereafter, the DMEM medium was removed, and 100 μL of a new DMEM medium containing FICZ (6-Formylindolo[3,2-b]carbazole; CAS RN: 172922-91-7) as a test sample at a predetermined concentration was added, followed by further incubation for 24 hours at 37° C., 5% CO2. FICZ is known as a substance that triggers a foreign body reaction in which XRE is involved. Meanwhile, negative controls were prepared by adding 100 μL of a DMEM medium containing no FICZ instead of the DMEM medium containing FICZ, which were also incubated for 24 hours at 37° C., 5% CO2.
(§1) After the above-described incubation for 24 hours, the number of cells in each well was counted by a colorimetric method based on the degradation of tetrazolium salt (WST-1) by mitochondrial dehydrogenase in viable cells. Specifically, 3 μL of Premix WST-1 (Product Name “Premix WST-1 Cell Proliferation Assay System”; Takara Bio Inc., Shiga, Japan; Catalogue No.: MK400) was added to each well of 96 well plates, and then the cells were cultured for 1 hour at 37° C., 5% CO2. Thereafter, 93 μL of cell culture supernatant was removed from each well to measure the absorbance of the supernatant in each well. The removed supernatants were transferred to transparent 96 well plates, and then the absorbance at 450 nm (A450) and, as a reference wavelength, the absorbance at 670 nm (A670) were measured using iMark microplate reader (Bio-Rad; Catalogue No.: 168-1130JA). A value (A450-A670) was obtained by subtracting the absorbance at 670 nm (A670) from the absorbance at 450 nm (A450). The relative viable cell count (%) was expressed as a relative value with the value (A450-A670) obtained for the negative control as 100%.
Meanwhile, the expression level of the reporter protein was measured using samples left on the white 96-well plates after removing the supernatants for the viable cell count measurement. Briefly, 7 μL of Nano-Glo Luciferase Assay System (Promega; Catalogue No.: N110) was added to each well of the white 96-well plate. After 3 mins, the luminescence intensity obtained from the reporter protein produced by XRE-NLuc::HaCaT cells in each well was measured using GloMax Navigator Microplate Luminometer (Promega; Catalogue No.: GM2000). The obtained luminescence intensities were divided by the relative viable cell counts obtained by the above-described colorimetric method to obtain the expression level of the reporter protein (luminescence intensity) per unit number of viable cells.
In FIG. 3, the luminescence intensity per unit number of viable cells obtained from XRE-NLuc::HaCaT cells incubated with each of the DMEM medium containing FICZ at different concentrations was shown as a relative value, with the luminescence intensity per unit number of viable cells obtained for the negative control set to 1. […] In the figure, “*” and “**” indicate statistically significant differences (p<0.05 and p<0.01, respectively) from the negative control (“FICZ Concentration 0 nM” in FIG. 3).
(§2) The ability of each test sample to trigger a foreign body reaction was evaluated using XRE-NLuc::HaCaT cells in the same manner as in Experiment 1-2, except that I3C (Indole-3-carbinol, CAS RN: 700-06-1), ITE (2-(1′H-indole-3′-carbonyl)-thiazole-4-carboxylic acid methyl ester, CAS RN: 448906-42-1), and Indirubin (CAS RN: 479-41-4) were used instead of FICZ as test samples and the amount of each test sample added to the DMEM medium was appropriately changed.

XRE-NLuc::HaCaT cells = assay: in vitro; conditions: read-out: LC50; XRE-NLuc::HaCaT cells, median lethal concentration
Experimental: as §1, §2

[2] = tested on: human liver cancer-derived cell line HepG2 cells; conditions: cited from earlier work
[3] = tested on: matrix metalloprotease 9 (MMP9) mRNA; assay: MMP9 mRNA expression in HaCaT cells contacted with test substance, quantitative PCR; type: cell-based, human; conditions: retinoic acid or nicotinamide at predetermined concentrations, 24 hours
Experimental: (§3) In this experiment, the effect of Fraglide-1 on the expression of MMP9 in the level of mRNA was examined first. Specifically, HaCaT cells were treated with Fraglide-1 in the same manner as described in Experiment 3-1 except that HaCaT cells were incubated for 24 hours in the medium containing 0 μM, 1 μM, 10 μM, and 100 μM of Fraglide-1 instead of being incubated for 24 hours in the medium containing both FICZ and Fraglide-1. The total RNA was then extracted, cDNA was prepared, and the quantitative PCR was performed using the obtained cDNA. Herein, the procedure of the quantitative PCR was the same as described in Experiment 3-1 except that the primers shown in below Table 4 were used. In this experiment, the expression of MMP2 mRNA was also quantified in addition to MMP9 mRNA. MMP2 is known as a MMP which is not transcriptionally regulated by a xenobiotic responsive element (XRE).
(§4) In FIG. 9 and FIG. 10, the results obtained for each sample were shown as a relative value, with the mRNA expression level of MMP9 or MMP2 in the HaCaT cells incubated for 24 hours in DMEM medium without FICZ (i.e., the non-treated HaCaT cells) set to 1. The results shown in FIG. 9 and FIG. 10 were the mean obtained from three independent experiments. The error bars represent the standard deviation (SD).
Next, experiments were performed to inhibit MMP9 and MMP2 in HaCaT cells using retinoic acid (CAS RN: 302-79-4) and nicotinamide (CAS RN: 98-92-0), which are known to be substances having anti-wrinkle effect. Briefly, HaCaT cells were made in contact with retinoic acid and nicotinamide in the same manner as in Experiment 4-1 except that retinoic acid and nicotinamide were used instead of Fraglide-1. Then, the total RNA was extracted, cDNA was prepared, and the quantitative PCR was carried out using the obtained cDNA.
as §4, with “FIG. 12” for “FIG. 9”, “FIG. 13,” for “FIG. 10,”, “medium containing neither retinoic acid nor nicotinamide” for “medium without FICZ”, “FIG. 13” for “FIG. 10”

[4] = tested on: matrix metalloprotease 2 (MMP2) mRNA; assay: MMP2 mRNA expression in HaCaT cells contacted with test substance, quantitative PCR; type: cell-based, human; conditions: retinoic acid or nicotinamide at predetermined concentrations, 24 hours
Experimental: as §3, with “(XRE). […]” for “(XRE).”
Next, experiments were performed to inhibit MMP9 and MMP2 in HaCaT cells using retinoic acid (CAS RN: 302-79-4) and nicotinamide (CAS RN: 98-92-0), which are known to be substances having anti-wrinkle effect. […] Then, the total RNA was extracted, cDNA was prepared, and the quantitative PCR was carried out using the obtained cDNA. […]

[5] = tested on: TIMP-1 (Tissue Inhibitor of Matrix Metalloprotease-1) mRNA; assay: TIMP-1 mRNA expression in HaCaT cells, quantitative PCR; type: cell-based, human; conditions: Fraglide-1 1 μM, 10 μM, 100 μM; retinoic acid / nicotinic acid amide at predetermined concentrations; 24 hours
Experimental: Specifically, the mRNA expression of TIMP-1 in the HaCaT cells treated with Fraglide-1 was evaluated by performing quantitative PCR using cDNA obtained in Experiment 4-1. The procedure of quantitative PCR was the same as described in Experiment 4-1 except that the primers shown in below Table 5 were used.
(§5) In FIG. 14, the results obtained for each sample were shown in relative values normalized by setting the expression level of TIMP-1 in the HaCaT cells incubated for 24 hours in DMEM medium not containing Fraglide-1 (i.e., the non-treated HaCaT cells) as 1. The results shown in FIG. 14 are the mean of values obtained from three independent experiments, and the error bars represent standard deviation (SD).
On the other hand, as comparison, the similar evaluation was performed for retinoic acid and nicotinamide, which are known as active ingredients of anti-wrinkle agents, using cDNA obtained in Experiment 4-2. The procedure for quantitative PCR was the same as already described in Experiment 3-1, except that the primers shown in Table 5 were used.
as §5, with “15,” for “14,”, “either retinoic acid and nicotinic acid amide” for “Fraglide-1”, “15” for “14”

[6] = tested on: xenobiotic responsive element (XRE); assay: Screening: inhibition of FICZ-triggered reporter protein expression in XRE-NLuc::HaCaT cells; type: cell-based, human; conditions: FICZ 5,000 nM, 24 hours
Experimental: First, in the same manner as in Experiment 1-2, XRE-NLuc::HaCaT cells were suspended in a DMEM medium at the density of 1×10^5 cell/mL, and 100 μL of the thus obtained suspension was added to each well of white 96-well plates (Thermo Fisher Scientific, MA, U.S.A.; Catalogue No.: 136102) so that a number of the cells in each well was 10,000 cells/well. In accordance with the conventional method, the cells were incubated for 24 hours at 37° C. and 5% CO2. Thereafter, the DMEM medium was removed, and 100 μL of a new DMEM medium containing […] of FICZ, which was confirmed to activate the expression of the reporter protein in Experiment 1-2, and a candidate substance at a predetermined concentration. Meanwhile, reference samples were also prepared by adding 100 μL of a DMEM medium containing 5,000 nM of FICZ but not containing candidate substances. In this experiment, 5-hydroxy-4-phenyl-2(5H)butenolide (hereinafter also referred to as “Fraglide-1” or “FG1”) and, as a positive control, cinnamaldehyde, which is known to have an effect of inhibiting a foreign body reaction in which a xenobiotic responsive element (XRE) is involved, were used as test substances. After incubation for 24 hours at 37° C. and 5% CO2, the expression level of the reporter protein (luminescence intensity) and the viable cell count were measured in accordance with the method described in Experiment 1-2, and the expression of the reporter protein per unit number of viable cells was obtained. The inhibition rate (Inhibition (%)) of the expression of the reporter protein exerted by each candidate substance was calculated in accordance with the following formula.
In the above formula, (Reporter Expression)FICZ indicates the expression of the reporter protein per unit number of viable cells obtained from the reference samples: i.e., the cells incubated in the medium containing 5,000 nM of FICZ but not containing candidate substances. Meanwhile, (Reporter Expression)FICZ+TEST SAMPLE indicates the expression of the reporter protein per unit number of viable cells obtained from the cells incubated in the medium containing 5,000 nM of FICZ and a candidate substance. The results shown in FIG. 6 were the mean obtained from three independent experiments. The error bars represent the standard error (SE).

in vitro = conditions: human
Experimental: as §1, §2

## OCc1c[nH]c2ccccc12 [I3C, indole-3-carbinol]
[1]
  EC50: 11 µM
  Present Experiment Maximum Effective concentration Max. Induction: 350 µM
XRE-NLuc::HaCaT cells
  CC50: > 700 µM

## COC(=O)c1csc(C(=O)c2c[nH]c3ccccc23)n1 [ITE, 2-(1′H-indole-3′-carbonyl)-thiazole-4-carboxylic acid methyl ester]
[1]
  EC50: 1.3 µM
  Present Experiment Maximum Effective concentration Max. Induction: 25 µM
XRE-NLuc::HaCaT cells
  CC50: > 100 µM
[2]
  Literature Value Maximum Effective concentration Max. Induction: 10** μM

## NC(=O)c1cccnc1 [nicotinamide]
[3]
  expression of MMP9 mRNA vs non-treated HaCaT cells: decreased expression of MMP9 was also observed
[4]
  expression of MMP2 mRNA vs non-treated HaCaT cells: decreased
[5]
  expression level of TIMP-1 mRNA vs non-treated HaCaT cells (in words): increase of the expression level of TIMP-1 was not observed

## O=CC=Cc1ccccc1 [cinnamaldehyde]
[6]; 12.5 μM test substance
  Inhibition (%) of expression of the reporter protein triggered by FICZ: 8%
[6]; 25 μM test substance
  Inhibition (%) of expression of the reporter protein triggered by FICZ: 14%
[6]; 50 μM test substance
  Inhibition (%) of expression of the reporter protein triggered by FICZ: 16%

## O=C1Nc2ccccc2/C1=C1/Nc2ccccc2C1=O [Indirubin, indirubin]
[1]; Homo sapiens
  EC50: 0.006 µM
[1]
  Present Experiment Maximum Effective concentration Max. Induction: 0.25 µM
In vitro
  CC50 at 24 h: > 40 µM
